Article PMC10244465, “Native American ataxia medicines rescue ataxia-linked mutant potassium channel activity via binding to the voltage sensing domain” (Nature Communications, 2023)
Like-named read-outs stand apart in the source and are kept apart here.

What was measured:
Assay type in all cases: cell-based
Kv1.1-L155P channels = biological target: T1, Kv1.1-L155P channels (Homo sapiens, UniProt Q09470, L155P); test: TEVC of oocytes expressing 100% Kv1.1-L155P; conditions: compound 1 µM
T1 construct: expressed in transfected cells; host or cells: Xenopus laevis oocytes
Excerpt: As previously described[24], we generated cRNA transcripts encoding human Kv1.1 (wild-type and mutant) and Kv1.2, by in vitro transcription using the mMessage mMachine kit (Thermo Fisher Scientific), after vector linearization, from cDNA sub-cloned into plasmids (pTLNx) incorporating Xenopus laevis β-globin 5’ and 3’ UTRs flanking the coding region to enhance translation and cRNA stability. We injected defolliculated stage V and VI Xenopus laevis oocytes (Xenoocyte, Dexter, MI, US) with Kv1 cRNAs (1–5 ng). […]
We performed TEVC at room temperature using an OC-725C amplifier (Warner Instruments, Hamden, CT) and pClamp10 software (Molecular Devices, Sunnyvale, CA) 2 days after cRNA injection as described in the section above. […] We recorded currents in response to voltage pulses between −80 mV and +40 mV at 10 or 20 mV intervals from a holding potential of −80 mV, to yield current-voltage relationships and examine activation kinetics. To calculate the voltage dependence of activation (V0.5), tail currents were recorded at a voltage pulse of −50 mV immediately following prepulse voltages between −80 mV and +40 mV. We analyzed data using Clampfit (Molecular Devices) and Graphpad Prism software (GraphPad, San Diego, CA, USA), stating values as mean ± SEM. […]

wild-type human Kv1.2 = biological target: T2, wild-type human Kv1.2 (Homo sapiens, UniProt P16389); test: Two-electrode voltage clamp of oocytes expressing wild-type Kv1.2
T2 construct: expressed in transfected cells; host or cells: Xenopus laevis oocytes injected with cRNA (pTLNx vector)
Protocol: We therefore first tested for activity of extracts (diluted 1:50 in bath solution to equal 5 mg plant solid starting material per ml) of each of the three plants on wild-type human Kv1.1 and closely related Kv1.2 expressed in Xenopus laevis oocytes, using manual two-electrode voltage clamp (TEVC). Strikingly, all three extracts altered Kv1 channel activity. […] Pacific ninebark (roots or leaves) had similar effects on Kv1.1 but negligible effects on Kv1.2.
We purchased live Urtica dioica (Common Nettle) from Crimson Sage Nursery (Orleans, CA, USA), cultivated it in Irvine CA, collected the aerial portions (primarily leaves) and then froze them until the day of extraction. We purchased Physocarpus capitatus (Pacific ninebark) live whole plant from Ozark Wildflower Company (Jasper, AR, USA) and separated the roots and aerial parts before extraction of each. We homogenized plant samples using a bead mill with porcelain beads in batches in 50 ml tubes (Omni International, Kennesaw, GA, United States). We purchased certified organic tree bark powders from Mountain Rose Herbs (Eugene, OR, USA) and dry raw Sophora japonica (fine pellets) from Teriya (People’s Republic of China). We purchased bladderwrack kelp extract capsules from Terra Vita (Brampton, Ontario, Canada) and discarded the outer capsule before extraction. We resuspended all plant powders and homogenates in 80% methanol/20% water (100 ml per 5 g solid) and then incubated for 48 h at room temperature, occasionally inverting the bottles to resuspend the extracts. We next filtered the extracts through Whatman filter paper #1 (Whatman, Maidstone, UK), and then removed the methanol using evaporation in a fume hood for 24–48 h at room temperature. We next centrifuged extracts for 10 min at 15 °C, 4000 RCF to remove the remaining particulate matter, followed by storage at −20 °C. On the day of electrophysiological recording, we thawed the extracts and diluted them 1:50 in bath solution (see below), to equal 5 mg plant solid starting material per ml, immediately before use.
Wild-type and mutant Kv1 cDNAs were generated (Genscript, Piscataway, NJ) in the pTLNx expression vector. […]
We performed TEVC at room temperature using an OC-725C amplifier (Warner Instruments, Hamden, CT) and pClamp10 software (Molecular Devices, Sunnyvale, CA) 2 days after cRNA injection as described in the section above. […] We recorded currents in response to voltage pulses between −80 mV and +40 mV at 10 or 20 mV intervals from a holding potential of −80 mV, to yield current-voltage relationships and examine activation kinetics. To calculate the voltage dependence of activation (V0.5), tail currents were recorded at a voltage pulse of −50 mV immediately following prepulse voltages between −80 mV and +40 mV. […]

Kv1.1-E283K channels = biological target: T3, Kv1.1-E283K channels (Homo sapiens, UniProt Q09470, E283K); test: TEVC of oocytes injected with 100% Kv1.1-E283K cRNA; conditions: for EC50: biphasic dose response
T3 construct: expressed in transfected cells; host or cells: Xenopus laevis oocytes
Protocol: We injected defolliculated stage V and VI Xenopus laevis oocytes (Xenoocyte, Dexter, MI, US) with Kv1 cRNAs (1–5 ng). We incubated the oocytes at 16 °C in ND96 oocyte storage solution containing penicillin and streptomycin, with daily washing, for 2 days prior to two-electrode voltage-clamp (TEVC) recording.
We performed TEVC at room temperature using an OC-725C amplifier (Warner Instruments, Hamden, CT) and pClamp10 software (Molecular Devices, Sunnyvale, CA) 2 days after cRNA injection as described in the section above. For recording, oocytes we placed in a small-volume oocyte bath (Warner) and viewed with a dissection microscope. We sourced chemicals from Sigma. We studied effects of plant extracts and of compounds, solubilized directly in bath solution (in mM): 96 NaCl, 4 KCl, 1 MgCl2, 1 CaCl2, 10 HEPES (pH 7.6). We introduced extracts or compounds into the oocyte recording bath by gravity perfusion at a constant flow of 1 ml per minute for 3 min prior to recording. Pipettes were of 1–2 MΩ resistance when filled with 3 M KCl. We recorded currents in response to voltage pulses between −80 mV and +40 mV at 10 or 20 mV intervals from a holding potential of −80 mV, to yield current-voltage relationships and examine activation kinetics. To calculate the voltage dependence of activation (V0.5), tail currents were recorded at a voltage pulse of −50 mV immediately following prepulse voltages between −80 mV and +40 mV. We analyzed data using Clampfit (Molecular Devices) and Graphpad Prism software (GraphPad, San Diego, CA, USA), stating values as mean ± SEM. We plotted raw or normalized tail currents vs. prepulse voltage and fitted with a single Boltzmann function:1 g=(A1−A2)/1+exp[V1/2−V/Vs]y+A2 where g is the normalized tail conductance, A1 is the initial value at -∞, A2 is the final value at +∞, V1/2 is the half-maximal voltage of activation and Vs the slope factor.

[1] = -20 mV, Figure 6 table, head 1 µM Tannic acid, footnote bladderwrack kelp

T3 sequence (Q09470 whole entry E283K): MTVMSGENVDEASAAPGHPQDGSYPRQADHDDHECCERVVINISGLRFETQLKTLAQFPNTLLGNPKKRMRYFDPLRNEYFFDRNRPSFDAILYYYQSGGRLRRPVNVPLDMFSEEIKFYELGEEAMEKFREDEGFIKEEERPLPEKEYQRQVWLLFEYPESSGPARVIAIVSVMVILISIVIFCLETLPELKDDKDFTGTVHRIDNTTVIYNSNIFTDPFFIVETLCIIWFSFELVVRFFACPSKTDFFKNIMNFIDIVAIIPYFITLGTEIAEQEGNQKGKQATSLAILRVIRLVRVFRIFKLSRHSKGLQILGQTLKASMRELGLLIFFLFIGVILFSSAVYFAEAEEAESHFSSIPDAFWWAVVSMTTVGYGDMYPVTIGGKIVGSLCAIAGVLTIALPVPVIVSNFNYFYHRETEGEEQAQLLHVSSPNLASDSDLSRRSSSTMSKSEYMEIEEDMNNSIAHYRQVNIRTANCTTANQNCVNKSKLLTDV
T1 sequence (Q09470 whole entry L155P): as the sequence (Q09470 whole entry E283K) above, with L155P, K283E counted along it
T2 sequence (P16389 whole entry): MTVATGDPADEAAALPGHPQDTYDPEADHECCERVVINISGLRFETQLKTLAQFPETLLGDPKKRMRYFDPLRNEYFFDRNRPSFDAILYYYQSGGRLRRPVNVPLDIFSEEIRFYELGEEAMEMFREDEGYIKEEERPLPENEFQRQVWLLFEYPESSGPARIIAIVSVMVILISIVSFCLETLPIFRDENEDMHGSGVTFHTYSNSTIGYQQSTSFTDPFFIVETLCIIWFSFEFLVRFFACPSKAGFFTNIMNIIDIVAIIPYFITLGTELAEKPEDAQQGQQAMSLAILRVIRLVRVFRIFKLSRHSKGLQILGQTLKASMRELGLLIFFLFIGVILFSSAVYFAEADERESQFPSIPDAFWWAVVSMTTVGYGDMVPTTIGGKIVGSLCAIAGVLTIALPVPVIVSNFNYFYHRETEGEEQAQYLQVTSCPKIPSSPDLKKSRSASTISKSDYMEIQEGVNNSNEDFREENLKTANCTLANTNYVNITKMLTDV

tannic acid
effect on channel activity (Kv1.1-L155P channels): did not alter
EC50 (wild-type human Kv1.2; dose response, Fig. 4, read-out: EC50 for ΔV0.5activation): 253 ± 10 nM
TauAct (Kv1.1-E283K channels; 0 mV, 1 µM, Figure 9 table): 15.70 ± 1.40 ms
TauAct (Kv1.1-E283K channels; 0 mV, Figure 6 table, head 1 µM Tannic acid, footnote bladderwrack kelp): 21.12 ± 4.35 ms
Peak current at -40 mV (Kv1.1-E283K channels; 0.1 µM): 0.02 ± 0.01 µA
Peak current at -40 mV (Kv1.1-E283K channels; 1 µM): 0.02 ± 0.01 µA
shift in the EM (Kv1.1-E283K channels; 1 µM): ~−20 mV
shift of V0.5 activation (Kv1.1-E283K channels; 1 µM): −13 ± 0.26 mV
Current-fold change -30 mV (Kv1.1-E283K channels; 1 µM compound): 4.69 ± 1.69
increase of activity (Kv1.1-E283K channels; 1 µM, at −40 to −20 mV): ≤ 20 fold
Peak current at -40 mV (Kv1.1-E283K channels; 10 µM): 0.02 ± 0.01 µA
Peak current at -40 mV (Kv1.1-E283K channels; 30 µM): 0.02 ± 0.01 µA
Peak current at -40 mV (Kv1.1-E283K channels; 100 µM): 0.03 ± 0.01 µA
TauAct (Kv1.1-E283K channels; +10 mV, 1 µM, Figure 9 table): 12.94 ± 1.05 ms
TauAct (Kv1.1-E283K channels; +10 mV, Figure 6 table, head 1 µM Tannic acid, footnote bladderwrack kelp): 17.43 ± 3.97 ms
TauAct (Kv1.1-E283K channels; +20 mV, 1 µM, Figure 9 table): 11.30 ± 0.89 ms
TauAct (Kv1.1-E283K channels; +20 mV, Figure 6 table, head 1 µM Tannic acid, footnote bladderwrack kelp): 12.72 ± 2.85 ms
TauAct (Kv1.1-E283K channels; +30 mV, 1 µM, Figure 9 table): 10.16 ± 0.83 ms
TauAct (Kv1.1-E283K channels; +30 mV, Figure 6 table, head 1 µM Tannic acid, footnote bladderwrack kelp): 10.63 ± 2.79 ms
TauAct (Kv1.1-E283K channels; +40 mV, 1 µM, Figure 9 table): 9.46 ± 0.83 ms
TauAct (Kv1.1-E283K channels; +40 mV, Figure 6 table, head 1 µM Tannic acid, footnote bladderwrack kelp): 10.04 ± 2.65 ms
TauAct (Kv1.1-E283K channels; -10 mV, 1 µM, Figure 9 table): 20.71 ± 2.35 ms
TauAct (Kv1.1-E283K channels; -10 mV, Figure 6 table, head 1 µM Tannic acid, footnote bladderwrack kelp): 27.06 ± 7.08 ms
TauAct (Kv1.1-E283K channels; -20 mV, 1 µM, Figure 9 table): 31.31 ± 2.98 ms
TauAct (Kv1.1-E283K channels; [1]): 41.32 ± 8.47 ms
TauDeact (Kv1.1-E283K channels; [1]): 0.87 ± 0.36 ms
TauDeact (Kv1.1-E283K channels; -30 mV, Figure 6 table, head 1 µM Tannic acid, footnote bladderwrack kelp): 0.79 ± 0.32 ms
TauDeact (Kv1.1-E283K channels; -40 mV, Figure 6 table, head 1 µM Tannic acid, footnote bladderwrack kelp): 0.88 ± 0.36 ms
TauDeact (Kv1.1-E283K channels; -50 mV, Figure 6 table, head 1 µM Tannic acid, footnote bladderwrack kelp): 1.04 ± 0.44 ms
TauDeact (Kv1.1-E283K channels; -60 mV, Figure 6 table, head 1 µM Tannic acid, footnote bladderwrack kelp): 1.23 ± 0.52 ms
TauDeact (Kv1.1-E283K channels; -70 mV, Figure 6 table, head 1 µM Tannic acid, footnote bladderwrack kelp): 1.38 ± 0.56 ms
TauDeact (Kv1.1-E283K channels; -80 mV, Figure 6 table, head 1 µM Tannic acid, footnote bladderwrack kelp): 1.50 ± 0.57 ms
EC50 (Kv1.1-E283K channels; read-out: EC50 for effects on EM, first component): 1.1 ± 0.9 nM
EC50 (Kv1.1-E283K channels; read-out: EC50 for effects on EM, second component): 10000 ± 400 nM
EC50 (Kv1.1-E283K channels; from the increase in relative tail current at −40 mV, read-out: EC50, higher sensitivity component): 3.7 ± 2.6 nM
EM (Kv1.1-E283K channels; in presence of 1 µM compound): -44.83 ± 0.14 mV
Slope (Kv1.1-E283K channels; in presence of 1 µM compound): 8.70 ± 1.19 mV
V0.5 Normalized tail current (Kv1.1-E283K channels; in presence of 1 µM compound): -22.75 ± 1.34 mV

O=C(O)c1cc(O)c(O)c(O)c1 [gallic acid]
effect on channel activity (Kv1.1-L155P channels): ineffective at rescuing activity
effect on Kv1.2 (wild-type human Kv1.2; compound dose response, Fig. 4a): relatively insensitive
effect on channel activity (Kv1.1-E283K channels; compound 1 µM): only very minor functional improvements
